In US11260083B2, “Compositions and methods for treating and preventing graft versus host disease” (The Regents of the University of Michigan, priority 2016, dated 2022):

Assays:
[1] = system: parent (C57BL/6J) into F1 (B6D2F1) BMT recipients; assay: Non-irradiated parent into F1 BMT model with butyrate; type: in vivo, mouse; settings: intragastric butyrate
[2] = system: CD326+ intestinal epithelial cells (IECs); assay: Western blot / qPCR of CD326+ IECs isolated from BMT recipients; type: in vivo, mouse
Description: CD326+ purified IECs were harvested from animals that received syngeneic (BALB/c→BALB/c) or allogeneic (C57BL/6J→BALB/c) BMT. Whole cell lysates were next obtained and protein concentrations determined with Pierce BCA Protein Assay (Thermo Scientific). Equal amounts of protein (20 μg) were separated by SDS-PAGE gel electrophoresis (120V, 1.5 h) and subsequently transferred to polyvinylidene difluoride (PVDF) membrane using a Bio-Rad semi-dry transfer cell (Hercules, Calif.) (20V, lh). The following antibodies were used to analyze the membranes with dilutions in accordance with the manufacturers specification sheet: α-tubulin (Cell Signaling, clone 11H10), Acetyl histone H4 (Lys5/8/12/16) (EMD Millipore, clone 3HH-4C10), SLC5A8 (abcam), GPR43 (abcam), Occludin (abcam, clone EPR8208), JAM (abcam, clone EP1042Y), and Claudin 5 (abcam). Secondary anti-rabbit antibody conjugated to HRP (Jackson ImmunoResearch, Cat No. 111-035-003) was used to detect primary antibodies, where needed. Densitometric analysis was performed using ImageJ software (National Institutes of Health; Bethesda, […].).
(§1) mRNA was isolated from samples using RNeasy kit following manufacturers instructions (Qiagen; Venlo, Netherlands). Using 1 μg of each mRNA template, cDNA was synthesized using SuperScript VILO (Invitrogen; Carlsbad, Calif.). qPCR primers were designed for murine targets. All primers were verified for the production of a single specific PCR product using a melting curve program and are shown below in Table 2.
It was next determined if the reduced amount of butyrate in IECs could be restored in vivo and further, whether this would have a functional impact on histone acetylation. In addition to utilizing transporters, butyrate can also diffuse across the mucosal barrier into IECs when present in high concentrations (Ganapathy, V., Thangaraju, M., Prasad, P. D., Martin, P. M. & Singh, N. Transporters and receptors for short-chain fatty acids as the molecular link between colonic bacteria and the host. Curr Opin Pharmacol 13, 869-874 (2013); Charney, A. N., Micic, L. & Egnor, R. W. Nonionic diffusion of short-chain fatty acids across rat colon. Am. J Physiol. 274, G518-24 (1998)). Therefore, it was hypothesized that administration of high amounts of butyrate locally would restore histone acetylation of IECs, in vivo. To test this, C57BL/6J cells were transferred to Balb/c mice and administered vehicle or butyrate via daily intragastric gavage.
To determine if these are involved in in vivo protection from GVHD, the expression of pro- and anti-apoptotic proteins as well as junctional proteins in IECs isolated 21 days following allo-BMT was determined. […] Overall, the results identify several ways in which butyrate can directly enhance epithelial cell function ranging from protection from irradiation and allo-T cell mediated apoptosis to proliferation and junctional protein expression, both in vitro and in vivo.

HDAC = HDAC enzymatic activity in donor T cells from recipient spleen; type: in vivo, mouse; settings: butyrate vs vehicle treated allogeneic animals
Description: To further determine whether the salutary effects of local treatment with butyrate on GI GVHD were dependent on donor Treg cells, a BMT was performed utilizing the same HC mismatched BMT model in which C57BL/6J (H-2b) cells are transferred to Balb/c (H-2d) mice. T cell-depleted (TCD) bone marrow was transplanted and purified CD4+CD25− T cells from donors. Vehicle or butyrate was administered to the recipients daily for 1 week, then every other day thereafter as above. […]. J. Exp. Med. 204, 57-63 (2007); Lahl, K. & Sparwasser, T. In vivo depletion of FoxP3+ Tregs using the DEREG mouse model. […]. The Treg depleted T cells were then used as donor cells in the major MHC mismatch model used above. […] To further examine whether the local administration of butyrate impacted donor T cells directly, the HDAC and HAT enzymatic activity was determined in donor T cells harvested from the recipient animals. Both the HDAC activity or HAT activity in the donor T cells harvested from the recipient spleen were similar between butyrate and vehicle treated allogeneic animals.

primary C57BL/6J IECs = assay: CTL assay: allogeneic CD8+ T cell killing of IECs; type: cell-based, mouse; settings: butyrate pre-treated overnight, vs control
Description: CD8+ T cells were isolated from Balb/c (H-2d) mice using anti-CD8 microbeads and LS columns (Miltenyi Biotec) following the manufacturer's instructions. CD8+ T cells were primed in the presence of irradiated (30 Gy) C57BL/6J (H-2b) splenocytes for 6 days prior to culture with primary IECs for 6 h and 16 h. Primary C57BL/6J IECs were harvested and incubated overnight in the presence or absence of butyrate 1 mM in gelatin coated (Cell Biologics Inc.; Chicago, Ill.) 100 mm-culture dishes (Fisher Scientific).
The potential mechanisms that contribute to butyrate-induced protection from severe GVHD were explored. Because (a) butyrate is decreased in IECs, (b) administration of butyrate mitigated GI GVHD independent of Treg cells, but (c) improved junction integrity, it was explored whether butyrate had direct effects on protecting IECs from allo-T cell mediated damage and conditioning. IECs were treated ex vivo with vehicle or butyrate for 24 hours irradiation (6 Gy) or no-irradition, followed by 24 hours of additional incubation with butyrate was performed. […] The ability of butyrate-treated IECs to withstand damage mediated by alloreactive T cells was determined by isolating and culturing primary IECs with butyrate or vehicle control, overnight. […] Because butyrate is a primary energy source for IECs 1-13, it was next determined whether butyrate enhances survival and growth of IECs in vitro. […]

IECs = assay: qPCR of butyrate treated IECs in vitro; type: cell-based, mouse
Description: as §1
It was hypothesized that butyrate would increase anti-apoptotic genes by modulation of histone acetylation. […] It was also determined if the restored acetylation of histone H4 observed in butyrate-treated allo-BMT recipients was responsible for increased BCL-B (Bcl2110) and JAM (F11r) expression via ChIP.

[3] = 21 days following allo-BMT, intragastric butyrate
[4] = IECs following butyrate treatment

CCCC(=O)[O-].[Na+] [butyrate, sodium butyrate]
survival [1]: improved survival | weight loss [1]: Significantly less weight loss | gene expression of junctional proteins in IECs ([2]; 21 days following allo-BMT, butyrate treated animals): similarly increased | BCL-B (Bcl2110) expression in IECs [2, 3]: increased | transcripts of Bak1 in IECs [2, 3]: significantly decreased | transcripts of Bax in IECs [2, 3]: significantly decreased | acetylation of histone H4 in IECs ([2]; C57BL/6J→Balb/c, daily intragastric butyrate for 21 days, vs untreated allo-BMT recipients): significantly restored | butyrate transporter SLC5A8 in IECs ([2]; daily intragastric gavage of butyrate): increase | protein amounts of Occludin, JAM and Claudin 5 (immunoblot) ([2]; recipients of allo-BMT treated with intragastric butyrate): increased junctional proteins | HDAC activity in donor T cells (HDAC): similar | IECs succumbing to CD8+ T cell killing (primary C57BL/6J IECs; 6 hours co-culture): Fewer butyrate pre-treated IECs succumbed | IECs succumbing to CD8+ T cell killing (primary C57BL/6J IECs; 16 hours co-culture): Fewer butyrate pre-treated IECs succumbed | mRNA expression of JAM (F11r) (IECs; [4]): significantly increased | mRNA expression of occludin (Ocln) (IECs; [4]): significantly increased | Bakl mRNA expression (IECs; butyrate treated IECs): significantly decreased | Bax mRNA expression (IECs; butyrate treated IECs): significantly decreased | transcripts of BCL-B (Bcl2110) (IECs; butyrate treated IECs): significantly increased
